Assay results from patent US20090048174A1, “Methods for inhibiting angiogenesis and tumor growth by inhibition of beta or delta protein kinase C” (priority 2006, published 2009).
Bridge positions count the residues as written; N and C are the ends. Ends that are not written are not given here.

Experiments:
[1] = tested on: human prostate cancer cells (PC3); assay: PC3 prostate tumor xenograft growth in nude mice, osmotic pump delivery; type: in vivo
Text: Male nude mice were subcutaneously injected with human prostate cancer cells (PC3) at six weeks of age. After one week, the animals were implanted with an ALZEJ® (Alza Corporation, Mountain View, Calif.) osmotic pump for delivery of a control saline solution, a control peptide of TAT (residues 47-57, Y[…] ID NO:85), or an inhibitor or activator of PKC (e.g., δV1-1 attached to TAT (YGRKKRRQRRR-CC-SFNSYELGSL; SEQ ID NO: 143), δV1-7 attached to TAT (YGRKKRRQRRR-CC-MRAAEDPM; SEQ ID NO: 144), or βIIV5-3 attached to TAT (YGRKKRRQRRR-CC-QEVIRN; SEQ ID NO: 145). The rate of administration was 0.5 μl/hr, unless otherwise noted. Typical inhibitor or activator concentrations were 3-30 mM. In some cases, a lower concentration was administered initially (e.g., 3 mM) followed by a higher concentration (e.g., 30 mM) in the later weeks of treatment.
(§1) Tumor volumes were measured periodically (e.g., weekly). The mice were typically sacrificed after 5 weeks of treatment. Deuterated water was given to the animals about one week prior to sacrifice to facilitate the measurement of cell proliferation. Angiogenesis and tumor cell proliferation were measured at six weeks by deuterium analyses using gas chromatography-mass spectrometry (GC-MS). Ribose derivatives extracted from DNA that incorporated deuterium during cell division can be identified by GC-MS and can be quantitated over total ribose from all DNA. This measurement allows the calculation of “newly synthesized DNA” during the deuterated water administration (i.e., pulse), from which the fractional turnover rate can be calculated using an exponential equation. Levels of tumor cell markers, angiogenesis-related polypeptides, and apoptosis-related proteins were evaluated by Western blot and immunohistochemistry.

[2] = tested on: tumor endothelial cells (TEC); assay: Tumor endothelial cell proliferation, deuterium GC-MS fractional turnover; type: in vivo, mice; details: three weeks of continuous treatment; vs saline
Method: Tumor volumes were measured periodically (e.g., weekly). […] Deuterated water was given to the animals about one week prior to sacrifice to facilitate the measurement of cell proliferation. Angiogenesis and tumor cell proliferation were measured at six weeks by deuterium analyses using gas chromatography-mass spectrometry (GC-MS). Ribose derivatives extracted from DNA that incorporated deuterium during cell division can be identified by GC-MS and can be quantitated over total ribose from all DNA. This measurement allows the calculation of “newly synthesized DNA” during the deuterated water administration (i.e., pulse), from which the fractional turnover rate can be calculated using an exponential equation. Levels of tumor cell markers, angiogenesis-related polypeptides, and apoptosis-related proteins were evaluated by Western blot and immunohistochemistry.

[3] = tested on: tumor cells (TC); assay: Tumor cell proliferation, deuterium GC-MS fractional turnover; type: in vivo, mice
Method: as §1

[4] = tested on: CD31; assay: CD31 staining of tumor samples (tumor vessels); type: in vivo, mice; details: 5 weeks of treatment; vs control animals
Text: (§2) Tumor cells (mixed cell populations) obtained from control and βIIPKC peptide inhibitor βIIV5-3-treated animals following 5-weeks of treatment were subjected to histological analysis to determine the effect of the βIIPKC peptide inhibitor on apoptosis (data not shown). CD31 is a tumor endothelial marker used to identify […] in a sample. CD31 (PECAM-1) has been implicated in angiogenesis, apoptosis, cell migration, modulation of integrin-mediated cell adhesion, transendothelial migration, negative regulation of immune cell signaling, autoimmunity, macrophage phagocytosis, IgE-mediated anaphylaxis, and thrombosis. […]
(§3) Tumor volumes were measured periodically (e.g., weekly). […] Angiogenesis and tumor cell proliferation were measured at six weeks by deuterium analyses using gas chromatography-mass spectrometry (GC-MS). Ribose derivatives extracted from DNA that incorporated deuterium during cell division can be identified by GC-MS and can be quantitated over total ribose from all DNA. This measurement allows the calculation of “newly synthesized DNA” during the deuterated water administration (i.e., pulse), from which the fractional turnover rate can be calculated using an exponential equation. Levels of tumor cell markers, angiogenesis-related polypeptides, and apoptosis-related proteins were evaluated by Western blot and immunohistochemistry.

[5] = tested on: tumor cells (mixed cell populations); assay: Apoptosis histology of tumor samples (TUNEL, Hoechst, cleaved caspase 3); type: in vivo, mice
Text: as §2, §3

[6] = tested on: vascular endothelial growth factor (VEGF); assay: VEGF concentration in prostate cancer tumor cells (ELISA); type: in vivo, mice; details: three weeks of continuous treatment; vs saline
[7] = molecular target: T1, δPKC (Homo sapiens, UniProt Q05655); assay: Immunoblot of particulate vs total δPKC in tumor cells from treated mice; type: in vivo; details: treated for 5 weeks, vs control (FIG. 18E)
T1 construct: endogenous in cells; host or cells: PC3 human prostate cancer xenograft grown in nude mice
T1 sequence (Q05655 whole entry): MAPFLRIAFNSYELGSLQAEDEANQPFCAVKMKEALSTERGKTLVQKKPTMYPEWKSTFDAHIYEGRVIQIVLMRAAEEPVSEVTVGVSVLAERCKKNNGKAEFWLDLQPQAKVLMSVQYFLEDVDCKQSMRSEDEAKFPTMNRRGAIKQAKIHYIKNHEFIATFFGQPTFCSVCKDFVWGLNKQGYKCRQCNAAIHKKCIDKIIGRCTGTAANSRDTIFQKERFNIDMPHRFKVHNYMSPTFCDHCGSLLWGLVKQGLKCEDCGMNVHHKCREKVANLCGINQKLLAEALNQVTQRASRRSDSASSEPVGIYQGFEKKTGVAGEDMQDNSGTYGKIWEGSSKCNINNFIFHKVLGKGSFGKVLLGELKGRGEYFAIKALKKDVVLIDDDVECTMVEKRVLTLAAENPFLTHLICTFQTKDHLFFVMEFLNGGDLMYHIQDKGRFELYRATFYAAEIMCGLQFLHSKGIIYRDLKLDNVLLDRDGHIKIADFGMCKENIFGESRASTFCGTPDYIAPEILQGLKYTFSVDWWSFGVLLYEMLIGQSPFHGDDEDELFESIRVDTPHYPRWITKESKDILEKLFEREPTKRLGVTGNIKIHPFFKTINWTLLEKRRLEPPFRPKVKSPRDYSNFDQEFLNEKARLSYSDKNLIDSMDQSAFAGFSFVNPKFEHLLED
Method: (§4) Male nude mice were subcutaneously injected with human prostate cancer cells (PC3) at six weeks of age. […]
(§5) Tumor volumes were measured periodically (e.g., weekly). […] Angiogenesis and tumor cell proliferation were measured at six weeks by deuterium analyses using gas chromatography-mass spectrometry (GC-MS). Ribose derivatives extracted from DNA that incorporated deuterium during cell division can be identified by GC-MS and can be quantitated over total ribose from all DNA. This measurement allows the calculation of “newly synthesized DNA” during the deuterated water administration (i.e., pulse), from which the fractional turnover rate can be calculated using an exponential equation. Levels of tumor cell markers, angiogenesis-related polypeptides, and apoptosis-related proteins were evaluated by Western blot and immunohistochemistry. […]

[8] = molecular target: T2, εPKC (Homo sapiens, UniProt Q02156); assay: Immunoblot of particulate vs total εPKC in tumor cells from treated mice; type: in vivo; details: tumor cells from treated animals; vs control (FIG. 19E)
T2 construct: endogenous in cells; host or cells: PC3 human prostate cancer xenograft grown in nude mice
T2 sequence (Q02156 1-737): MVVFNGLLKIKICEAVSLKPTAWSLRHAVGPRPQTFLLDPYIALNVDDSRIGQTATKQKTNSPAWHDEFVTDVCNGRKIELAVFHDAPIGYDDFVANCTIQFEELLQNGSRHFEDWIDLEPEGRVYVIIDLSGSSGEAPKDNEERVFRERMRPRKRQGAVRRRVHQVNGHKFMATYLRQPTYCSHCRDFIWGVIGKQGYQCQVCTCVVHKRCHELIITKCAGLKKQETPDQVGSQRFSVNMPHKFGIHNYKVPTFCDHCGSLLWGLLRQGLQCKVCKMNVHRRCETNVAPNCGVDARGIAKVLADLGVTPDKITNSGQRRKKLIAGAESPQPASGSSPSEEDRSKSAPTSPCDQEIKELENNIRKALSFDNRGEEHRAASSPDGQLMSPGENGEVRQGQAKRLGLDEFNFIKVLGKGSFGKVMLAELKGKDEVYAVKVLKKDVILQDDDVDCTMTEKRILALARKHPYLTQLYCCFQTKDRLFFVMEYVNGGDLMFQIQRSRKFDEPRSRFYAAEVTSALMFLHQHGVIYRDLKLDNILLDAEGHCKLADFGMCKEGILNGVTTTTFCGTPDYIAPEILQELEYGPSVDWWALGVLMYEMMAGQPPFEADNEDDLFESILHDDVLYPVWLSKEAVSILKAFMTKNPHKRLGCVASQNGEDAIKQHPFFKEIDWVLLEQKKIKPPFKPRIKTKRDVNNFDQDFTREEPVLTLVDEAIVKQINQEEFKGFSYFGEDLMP
Method: as §4, §5

[9] = tested on: Ki67; assay: Ki67 staining of tumor tissue; type: in vivo, mice; details: vs saline
Method: Tumor tissue obtained from animals treated with a control saline solution or the δPKC activator peptide were stained with an antibody specific for Ki67 to detect proliferating cells in all phases of the cell cycle (i.e., G1, S-, G2-, and M-phase), but not in resting cells (G0-phase).
as §1

[10] = tested on: HIF-1a; assay: Immunoblot of HIF-1a in tumor cell homogenate, normalized for GAPDH; type: in vivo, mice; details: tumor cells, 5 weeks of treatment; vs saline, p<0.05 (FIG. 24E)
Text: FIGS. 24A-24D show the results of immunoblot analysis total cell homogenate obtained from tumor cells from saline control (FIGS. 24 A and 24C) and δPKC activator (FIGS. 24 B and 24D) treated animals (5 weeks). The blots were probed with an antibody specific for hypoxia-inducible factors (HIF-1a, FIGS. 24A and 24B) or an antibody specific for GAPDH as a control (FIGS. 24C and 24D). FIG. 24E is a graph showing the relative levels of HIF-1a (normalized for GADPH) from FIGS. 24A-24D.
Tumor volumes were measured periodically (e.g., weekly). The mice were typically sacrificed after 5 weeks of treatment. […] Angiogenesis and tumor cell proliferation were measured at six weeks by deuterium analyses using gas chromatography-mass spectrometry (GC-MS). Ribose derivatives extracted from DNA that incorporated deuterium during cell division can be identified by GC-MS and can be quantitated over total ribose from all DNA. This measurement allows the calculation of “newly synthesized DNA” during the deuterated water administration (i.e., pulse), from which the fractional turnover rate can be calculated using an exponential equation. Levels of tumor cell markers, angiogenesis-related polypeptides, and apoptosis-related proteins were evaluated by Western blot and immunohistochemistry. […]

δV1-7: activator of δPKC, amino acid sequence MRAAEDPM (SEQ ID NO: 146), attached to TAT (YGRKKRRQRRR-CC-MRAAEDPM; SEQ ID NO: 144) (YGRKKRRQRRRCCMRAAEDPM; disulfide 12-13 (inferred))
tumor mass ([1]; 3 weeks of treatment, vs saline (FIG. 25C)): decreased
tumor volume ([1]; continuous treatment, vs saline and Tat control groups, p=0.004 (FIG. 20)): significantly increased tumor volume
tumor volume ([1]; three weeks of treatment, peptide conjugated to TAT, vs TAT control (FIG. 17)): increase in tumor volume
rate of tumor endothelial cell (TEC) proliferation, fractional turnover per day [2]: similar
rate of tumor cell proliferation ([3]; 5 weeks of treatment (end-stage), vs saline (FIG. 22)): substantial increase
rate of tumor cell (TC) proliferation, fractional turnover per day ([3]; three weeks of continuous treatment, vs saline): appeared to decrease
CD31 staining (tumor vascularization) [4]: several-fold increase
percentage of cells stained by TUNEL labeling ([5]; mixed tumor cell population, 5 weeks of treatment, vs saline (FIG. 26)): increased TUNEL labeling only slightly
tumor volume as a function of the percent of TUNEL-positive cells ([5]; vs saline control animals (FIG. 27A-27C)): larger tumor volumes for a given percent of TUNEL-positive cells
concentration of VEGF in prostate cancer tumor cells [6]: not increased
levels of particulate δPKC compared to total δPKC [7]: approximately doubled
levels of particulate εPKC compared to total εPKC [8]: do not substantially change
Ki67 staining (proliferating cells) [9]: increased Ki67 staining
levels of HIF-1a normalized for GAPDH [10]: several-fold increase
